Assay results taken from PubChem BioAssay (NCI).
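Step 1: Grow cells in 96-well plates. Step 2: Expose to compound for 48 hours at 5 concentrations. Step 3: Interpolate endpoints linearly; if unreached, use highest concentration. TGI marks complete inhibition of growth.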

Tests used:
Assay in all cases: NCI anticancer screen, dose series, 48 h
[1] = test system: SK-MEL-28 melanoma
[2] = test system: SW-620 colon
[3] = test system: DU-145 prostate
[4] = test system: HCT-15 colon
[5] = test system: SK-OV-3 ovarian
[6] = test system: NCI-H460 lung
[7] = test system: BT-549 breast
[8] = test system: A498 renal
[9] = test system: MDA-MB-435
[10] = test system: MDA-N

| SMILES | TGI [1] | TGI [2] | TGI [3] | TGI [4] | TGI [5] | TGI [6] | TGI [7] | TGI [8] | TGI [9] | TGI [10] |
| --- | --- | --- | --- | --- | --- | --- | --- | --- | --- | --- |
| O=c1[nH]ncc2[nH]c3c(c12)CCc1ccccc1-3 | > 100 µM | > 100 µM | > 100 µM | > 100 µM | > 100 µM | 77 µM | > 100 µM | 61.8 µM | > 100 µM |  |
| Cn1c(CO)ccc1-c1ccc(-c2ccc(CO)[se]2)[se]1 | > 100 µM | > 100 µM | > 100 µM | > 70.6 µM | > 100 µM | > 100 µM | > 91.4 µM | 0.0684 µM | 45.6 µM |  |
| CCC12CCC[C@@]13C=C[C@H](O3)C(C)(C)C2=O (stereo partly specified) |  | > 100 µM |  | > 100 µM | > 100 µM | > 100 µM |  |  |  |  |
| CC(=O)OC12c3ccccc3C(c3ccccc31)C1C(=O)N(N=C(C)C)C(=O)C12 (stereo unspecified) | > 100 µM | > 100 µM | > 100 µM | > 100 µM | > 100 µM |  | > 100 µM |  |  | > 100 µM |
| COCc1cc2c(s1)C(=O)C1=C(C2=O)C2(C=C(Br)C(=O)C(Br)=C2)CCN1 | 20.3 µM | 10.6 µM | 29.8 µM | 14.7 µM | 30.7 µM | 14.5 µM |  | 29.6 µM | 2.94 µM | 3.11 µM |
| CCOC(=O)C(Cc1ccc(N=NN(C)C)cc1)NC(=O)CC1c2ccccc2-c2ccccc21 (stereo unspecified) | > 100 µM | > 100 µM |  | > 100 µM | > 100 µM | > 100 µM |  | > 100 µM |  |  |
| COc1ccc2oc(=O)c(-c3cc4c(c(C)n3)c(=O)oc3ccc(OC)cc34)cc2c1 | > 100 µM | > 100 µM | > 100 µM | > 100 µM | > 100 µM | > 100 µM | > 100 µM |  | > 100 µM | > 100 µM |
| CC(=O)c1c(-c2ccc(Cl)cc2)c(C#N)c(=S)n(C2OC(CO)C(O)C(O)C2O)c1C (stereo unspecified) | 87.6 µM |  | > 100 µM | > 100 µM | > 100 µM | > 100 µM |  | > 100 µM | > 100 µM | 86.8 µM |
| [C-]#[O+].[Cl][Sn]([Cl])[Cl].[Cl][Sn]([Cl])[Cl].[Pt].c1cnc2c(c1)ccc1cccnc12 | 46.9 µM | > 100 µM |  | > 44 µM | 27.8 µM | 23.5 µM |  | 13.3 µM |  |  |
| CC(=O)CCC1(C(=O)OCC(C)C)CCCC1=O (stereo unspecified) | > 100 µM | > 100 µM | > 100 µM | > 100 µM | > 100 µM | > 100 µM | > 100 µM |  | > 100 µM | > 100 µM |
| CC1CC(c2ccccc2)=Nc2ccccc2S1 (stereo unspecified) | > 100 µM | > 100 µM |  | > 100 µM | > 100 µM | > 100 µM |  | > 100 µM |  |  |
| COc1cccc(/C=N/[N-]C(N)=O)c1[O-].[Cu+2].[OH3+] | 27.8 µM | 27.3 µM |  | 27.2 µM |  | 36 µM |  | 32.2 µM |  |  |
| COc1c(OC2OC(CO)C(O)C(O)C2O)cc2c(c1OC)-c1ccc(OC)c(=O)cc1C(NC(C)=O)CC2 (stereo unspecified) | > 100 µM | > 100 µM |  | > 100 µM | > 100 µM | > 100 µM |  | > 100 µM |  |  |
| O=C(O)CCCc1ccc2c(c1)C(C(=O)O)CC2 (stereo unspecified) | > 100 µM | > 100 µM | > 100 µM | > 100 µM | > 100 µM | > 100 µM | > 100 µM |  |  | > 100 µM |
| CC(C)(NO)/C(=N\O)c1ccccc1 |  | > 10 µM | > 10 µM | > 10 µM |  | > 10 µM | > 10 µM |  | > 10 µM | > 10 µM |
| COc1ccc(C(=CCC(C)C2CCC3[C@@H]4C(OC(C)=O)CC5CC(OC(C)=O)CC[C@]5(C)C4CC(OC(C)=O)[C@]23C)c2ccc(OC)cc2)cc1 (stereo partly specified) | > 100 µM | > 100 µM |  | > 100 µM | > 100 µM | > 100 µM |  |  | > 100 µM |  |
| O=C(O)C1CCC(=O)N1C(=O)COc1cc(Cl)c(Cl)cc1Cl (stereo unspecified) | > 100 µM | > 100 µM |  | > 100 µM | > 100 µM | > 100 µM |  | > 100 µM |  |  |
| COc1cc(C2c3cc4c(cc3[C@@H](Nc3ccc(F)cc3)C3COC[C@H]23)OCO4)cc(OC)c1O (stereo partly specified) | > 25 µM | > 25 µM |  | 18.9 µM | > 25 µM | 3.83 µM |  |  | > 25 µM | > 25 µM |
| CC1(C)N=C(/C(Cl)=[N+](/[O-])C(=O)c2ccc(Cl)cc2)C(C)(C)N1O | 37.3 µM | 44.9 µM | > 100 µM | 35.8 µM | > 100 µM | > 100 µM |  |  | 52.4 µM | 32.4 µM |
| CC(C)C(NCc1c2ccccc2[n+](C)c2ccccc12)C(=O)O (stereo unspecified) | 26.8 µM | 18.8 µM |  | 13.9 µM | 31 µM | 29.1 µM |  | 24.6 µM |  |  |
